Test results taken from patent publication US20200339691A1, “PROTEINACEOUS MOLECULES AND USES THEREFOR” (priority 2018, published 2020).
Where a SMILES comes first, the peptide text is derived from it. The star is where a group is joined. Myristoyl = CCCCCCCCCCCCCC(=O)*

Legend:
[1] = tested on: CD44^hiCD24^lo CSCs in MDA-MB-231 cells; assay: FACS analysis of CD44^hiCD24^lo cancer stem cells in MDA-MB-231 cells treated with P1 analogues; type: cell-based, human; details: 50 μM peptide, 48 hours; for CD44^hiCD24^lo CSCs (%) / COI, Live Single CD44^hiCD24^lo CSCs (Cell Count): n = 1; for Average Inhibition of CSCs (%) / CD44^hiCD24^lo CSCs (%) Repeat 1 / CD44^hiCD24^lo CSCs (%) Repeat 2 / CD44^hiCD24^lo CSCs (%) Repeat 3: n = 3
Description: Analogues of P1 (Table 6) were designed and synthesized in accordance with the procedure of Example 5. The ability of these analogues to inhibit cancer stem cells was determined using FACS analysis on MDA-MB-231 cells, which constitutively contain approximately 90% CD44^hiCD24^lo cancer stem cells, treated with the peptides.
(§1) Non-adherent cells were removed during the washing steps.

[2] = tested on: MDA-MB-231 cells; type: cell-based, human; details: 50 μM peptide, 48 hours, n = 1;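 as to COI, Live Single Cells (Cell Count): live means Hoechst-negative events among single cells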
From the text: as §1

Structure (SMILES) | Inhibition of CSCs (%) Repeat 1 [1] [%] | Inhibition of CSCs (%) Repeat 2 [1] [%] | Inhibition of CSCs (%) Repeat 3 [1] [%] | CD44^hiCD24^lo CSCs (%) [1] [%] | COI, Live Single CD44^hiCD24^lo CSCs (Cell Count) [1] | Average Inhibition of CSCs (%) [1] [%] | CD44^hiCD24^lo CSCs (%) Repeat 1 [1] [%] | CD44^hiCD24^lo CSCs (%) Repeat 2 [1] [%] | CD44^hiCD24^lo CSCs (%) Repeat 3 [1] [%] | COI (Cell Count) [2] | COI, Live Single Cells (Cell Count) [2] | COI, Single (Cell Count) [2] | Total Cell Count [2]
CCCCCCCCCCCCCC(=O)N[C@@H](CCC(=O)O)C(=O)N[C@H](C(=O)N[C@@H](Cc1ccccc1)C(=O)N[C@H](C(=O)N[C@@H](Cc1ccccc1)C(=O)N[C@@H](CCCNC(=N)N)C(=O)N[C@@H](CC(C)C)C(=O)N[C@@H](CCCNC(=N)N)C(=O)N[C@@H](CCCCN)C(=O)NCC(=O)N[C@@H](CCCNC(=N)N)C(=O)N[C@@H](CCSC)C(=O)N[C@@H](CCSC)C(=O)N[C@@H](CC(=O)O)C(=O)N[C@H](C(=O)N[C@@H](CCCCN)C(=O)N[C@@H](CCCCN)C(N)=O)C(C)C)[C@@H](C)CC)[C@@H](C)O [Peptide 2853802, Myristoyl-ETFIFRLRKGRMMDVKK-NH2] (Myristoyl-ETFIFRLRKGRMMDVKK-NH2) | 42.88 | 46.07 | 49.94 | 48.71 | 3133 | 46.30 | 51.19 | 48.38 | 44.92 | 7612 | 6432 | 7095 | 9672
CCCCCCCCCCCCCC(=O)N[C@@H](CCCCN)C(=O)N[C@H](C(=O)N[C@@H](Cc1ccccc1)C(=O)N[C@H](C(=O)N[C@@H](Cc1ccccc1)C(=O)N[C@@H](CCCNC(=N)N)C(=O)N[C@@H](CC(C)C)C(=O)N[C@@H](CCCNC(=N)N)C(=O)N[C@@H](CCCCN)C(=O)NCC(=O)N[C@@H](CCCNC(=N)N)C(=O)N[C@@H](CCSC)C(=O)N[C@@H](CCSC)C(=O)N[C@@H](CC(=O)O)C(=O)N[C@H](C(=O)N[C@@H](CCCCN)C(=O)N[C@@H](CCCCN)C(N)=O)C(C)C)[C@@H](C)CC)[C@@H](C)O [Peptide 2853803, Myristoyl-KTFIFRLRKGRMMDVKK-NH2] (Myristoyl-KTFIFRLRKGRMMDVKK-NH2) | 27.90 | 27.33 | 38.43 | 60.36 | 402 | 31.22 | 64.62 | 65.20 | 55.25 | 741 | 666 | 702 | 1115
CCCCCCCCCCCCCC(=O)N[C@@H](CC(C)C)C(=O)N[C@@H](CCC(=O)O)C(=O)N[C@@H](Cc1ccccc1)C(=O)N[C@H](C(=O)N[C@@H](Cc1ccccc1)C(=O)N[C@@H](CCCNC(=N)N)C(=O)N[C@@H](CC(C)C)C(=O)N[C@@H](CCCNC(=N)N)C(=O)N[C@@H](CCCCN)C(=O)NCC(=O)N[C@@H](CCCNC(=N)N)C(=O)N[C@@H](CCSC)C(=O)N[C@@H](CCSC)C(=O)N[C@@H](CC(=O)O)C(=O)N[C@H](C(=O)N[C@@H](CCCCN)C(=O)N[C@@H](CCCCN)C(N)=O)C(C)C)[C@@H](C)CC [Peptide 2853804, Myristoyl-LEFIFRLRKGRMMDVKK-NH2] (Myristoyl-LEFIFRLRKGRMMDVKK-NH2) | 85.86 | 80.73 | 86.58 | 13.77 | 19 | 84.39 | 12.67 | 17.29 | 12.05 | 360 | 138 | 203 | 1384
CCCCCCCCCCCCCC(=O)N[C@@H](CC(C)C)C(=O)N[C@@H](CC(C)C)C(=O)N[C@@H](Cc1ccccc1)C(=O)N[C@H](C(=O)N[C@@H](Cc1ccccc1)C(=O)N[C@@H](CCCNC(=N)N)C(=O)N[C@@H](CC(C)C)C(=O)N[C@@H](CCCNC(=N)N)C(=O)N[C@@H](CCCCN)C(=O)NCC(=O)N[C@@H](CCCNC(=N)N)C(=O)N[C@@H](CCSC)C(=O)N[C@@H](CCSC)C(=O)N[C@@H](CC(=O)O)C(=O)N[C@H](C(=O)N[C@@H](CCCCN)C(=O)N[C@@H](CCCCN)C(N)=O)C(C)C)[C@@H](C)CC [Peptide 2853806, Myristoyl-LLFIFRLRKGRMMDVKK-NH2] (Myristoyl-LLFIFRLRKGRMMDVKK-NH2) | 4.36 | 9.44 | 10.85 | 91.86 | 3361 | 8.22 | 85.71 | 81.25 | 80.00 | 3997 | 3659 | 3696 | 4893
CCCCCCCCCCCCCC(=O)N[C@@H](CC(C)C)C(=O)N[C@H](C(=O)N[C@@H](CCC(=O)O)C(=O)N[C@H](C(=O)N[C@@H](Cc1ccccc1)C(=O)N[C@@H](CCCNC(=N)N)C(=O)N[C@@H](CC(C)C)C(=O)N[C@@H](CCCNC(=N)N)C(=O)N[C@@H](CCCCN)C(=O)NCC(=O)N[C@@H](CCCNC(=N)N)C(=O)N[C@@H](CCSC)C(=O)N[C@@H](CCSC)C(=O)N[C@@H](CC(=O)O)C(=O)N[C@H](C(=O)N[C@@H](CCCCN)C(=O)N[C@@H](CCCCN)C(N)=O)C(C)C)[C@@H](C)CC)[C@@H](C)O [Peptide 2853807, Myristoyl-LTEIFRLRKGRMMDVKK-NH2] (Myristoyl-LTEIFRLRKGRMMDVKK-NH2) | 84.07 | 81.60 | 86.81 | 11.31 | 19 | 84.16 | 14.28 | 16.51 | 11.84 | 690 | 168 | 439 | 3558
